Assay results from PMC6010092, “Novel hits for acetylcholinesterase inhibition derived by docking-based screening on ZINC database” (Journal of Enzyme Inhibition and Medicinal Chemistry, 2018).
Entries after “also recorded” stand apart in the source; their conditions may differ. Like-named read-outs stand apart in the source and are kept apart here.

Legend:
[1] = biological target: T1, AChE from Electrophorus electricus (eeAChE) (Electrophorus electricus, UniProt O42275); assay: biochemical; format: binding
T1 construct: purchased Sigma Aldrich
T1 sequence (O42275 24-633): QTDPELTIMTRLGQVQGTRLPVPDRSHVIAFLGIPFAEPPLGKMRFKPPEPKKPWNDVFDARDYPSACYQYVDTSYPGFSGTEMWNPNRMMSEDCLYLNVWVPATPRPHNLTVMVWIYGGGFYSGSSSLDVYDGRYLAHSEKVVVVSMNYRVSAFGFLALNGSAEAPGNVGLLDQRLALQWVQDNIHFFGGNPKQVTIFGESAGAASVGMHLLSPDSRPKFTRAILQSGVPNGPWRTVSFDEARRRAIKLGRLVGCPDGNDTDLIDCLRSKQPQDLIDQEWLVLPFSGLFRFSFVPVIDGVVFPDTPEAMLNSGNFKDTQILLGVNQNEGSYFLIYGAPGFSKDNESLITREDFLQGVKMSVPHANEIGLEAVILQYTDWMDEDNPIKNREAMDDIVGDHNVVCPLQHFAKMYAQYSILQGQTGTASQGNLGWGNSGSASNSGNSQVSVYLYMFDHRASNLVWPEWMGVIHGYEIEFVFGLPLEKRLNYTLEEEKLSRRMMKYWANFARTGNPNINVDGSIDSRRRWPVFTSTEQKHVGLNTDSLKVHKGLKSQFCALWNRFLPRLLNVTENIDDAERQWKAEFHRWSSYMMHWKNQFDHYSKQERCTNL
Experimental: The ITC measurements[40] were performed on NanoITC tool (TA Instruments, Lindon, UT) with 190 µL sample cell and 50 µL syringe. […] The tested compounds were prepared in 5 mM stock solutions in ethanol and diluted to 0.5 mM in 50 mM Tris-HCl pH 7.4 buffer. All samples were degassed prior the experiments. The AChE solution was placed into the sample cell and titrated by the tested compounds in 25 steps of 2 µL at 5 min intervals at 25 °C. The blank samples (buffer lacking AChE) were titrated at the same conditions. The corresponding Kd values were calculated using NanoAnalyze software (TA Instruments, Lindon, UT).

NEURO-2A cells [2] = assay: Neurotoxicity test, MTT-dye reduction assay; format: cell-based; settings: for IC50: Mus musculus, N2a, 72-h incubation, MTT, read-out: IC50 Neuro2A; for Neurotoxicity on Neuro-2A cells (in words): concentrations up to 100 µM
Experimental: Murine neuroblastoma NEURO-2 A cells (German collection DSMZ, Braunschweig, Germany) were cultivated under standard conditions: complete medium (90% DMEM, 10% heat-inactivated FBS, and 1 × non-essential amino acids); 37 °C and5% CO2 in fully humidified atmosphere. The cell line was kept in the logarithmic growth phase by splitting 1:4 once a week using trypsin/EDTA. About 30% of the cells grow like neuronal cells. For the experimental evaluation of the cytotoxicity NEURO-2A, cells were plated in 96-well flat-bottomed cell culture plates at the recommended density of 1 × 10^6 cells/25 cm^2. After 24 h, the cells were treated with various concentrations of the investigational compounds and after 72-h incubation, a MTT-dye reduction assay was performed. Briefly, at the end of incubation, a MTT stock solution (10 mg/ml in PBS) was added (10 µL/well). Plates were further incubated at 37 °C for 4 h. Next, the formazan crystals were dissolved by the addition of 110 µL/well 5% formic acid in 2-propanol (v/v). Absorption was measured at 580 nm wavelength on an automated ELISA reader Labexim LMR1. At least six wells per concentration were used, and data were processed using the GraphPad Prism 5.0 software 2.

PAMPA BBB permeability = format: in vitro ADME; settings: −logPe, pH 7.4, 25 °C, 4 h, lipid BBB-1
Experimental: The intestinal and BBB permeabilities were measured by PAMPA Permeability Analyzer (pION Inc.) at the following settings: wavelength analysed 250–500 nm, pH 7.4, temperature 25 °C, permeation time 4 h, lipid formulation GIT-0 and stirring 60 rpm and BBB-1 and no stirring, respectively. […]. Carbamazepine, ketoprofen, and ranitidine were used as controls for intestinal permeability. Theophylline, progesterone, and propranolol were used as controls for BBB permeability.

[3] = PAMPA GIT (intestinal) permeability; format: in vitro ADME; settings: −logPe, pH 6.2, 25 °C, 4 h, lipid GIT-0
NEURO-2A cells [4] = settings: read-out: IC50 Neuro2A; cited from earlier work
[5] = cited from earlier work

Row | Structure (SMILES) | Kd ([1]; ITC, read-out: Kd) [nM] | IC50 (NEURO-2A cells [2]) [nM] | Neurotoxicity on Neuro-2A cells (in words) (NEURO-2A cells [2]) | pPe pH 7.4 BBB PAMPA (PAMPA BBB permeability) | pPe pH 6.2 GIT PAMPA [3] | Kd ITC ([1]; 25 °C, pH 7.4) | Kd ([1]; 25 °C, pH 7.4, read-out: Kd ITC) [nM] | IC50 (NEURO-2A cells [4]) [nM] | CL [5] | VD^ss [5] | t1/2 [5]
1 | CN(Cc1ccccc1-c1ccccc1)C(=O)CCn1ccccc1=O [Compound 1, N-Methyl-3-(2-oxo-1-pyridyl)-N-[(2-phenylphenyl)methyl]propanamide] | 525 | > 100000 | non-toxic | 4.540 | 4.268 |  |  |  |  |  | 
2 | O=C(CCn1ccc2ccccc21)NCCCn1cnc2ccccc21 [Compound 2, N-[3-(benzimidazol-1-yl)propyl]-3-indol-1-yl-propanamide] | 618 | > 100000 | absence of toxicity; also recorded: non-toxic | 4.452 | 4.339 |  |  |  |  |  | 
3 | O=C(CCn1nc(-c2ccccc2)ccc1=O)NCCc1ccccc1 [Compound 3, 3-(6-Oxo-3-phenylpyridazin-1(6H)-yl)-N-phenethylpropanamide] | 555 | > 100000 | non-toxic | 4.294 | 4.207 |  |  |  |  |  | 
4 | Cn1cc(CNCc2ccc3ncccc3c2)c(-c2ccccc2F)n1 [Compound 4, 1-[3-(2-fluorophenyl)-1-methyl-pyrazol-4-yl]-N-(6-quinolylmethyl) methanamine] | 618 | 35000 |  | 4.258 | 4.251 |  |  |  |  |  | 
5 | O=C(Cn1ccc2ccccc21)NCCOc1cccc2cccnc12 [Compound 5, 2-indol-1-yl-N-[2-(8-quinolyloxy)ethyl]acetamide] | 517 | > 100000 | non-toxic | 4.146 | 4.230 |  |  |  |  |  | 
6 | Cn1cc(CNC(=O)N2CCC(C(N)=O)CC2)c(-c2ccccc2)n1 [Compound 6, N^1-((1-methyl-3-phenyl-1H-pyrazol-4-yl)methyl)piperidine-1,4-dicarboxamide] | 613 | > 100000 | non-toxic | 5.008 | 4.428 |  |  |  |  |  | 
7 | Cn1cc(CNCCc2cccc3cccnc23)c(-c2cccnc2)n1 [Compound 7, N-((1-methyl-3-(pyridin-3-yl)-1H-pyrazol-4-yl)methyl)-2-(quinolin-8-yl)ethanamine] | 577 | > 100000 | non-toxic | 4.267 | 4.246 |  |  |  |  |  | 
8 | COc1ccc(CC(=O)N[C@@H](CO)[C@@H](O)c2ccc(N)cc2)cc1 [Compound 8, N-((1S,2S)-1-(4-aminophenyl)-1,3-dihydroxypropan-2-yl)-2-(4-methoxyphenyl)acetamide] | 682 | > 100000 | non-toxic | 4.731 | 4.469 |  |  |  |  |  | 
9 | O=C(Cn1c(=O)[nH]c(=O)c2ccccc21)NCCc1cccc(F)c1 [Compound 9, 2–(2,4-dioxoquinazolin-1-yl)-N-[2-(3-fluorophenyl)ethyl]acetamide] |  | > 100000 |  | 4.628 | 4.361 | does not interact; also recorded: Non-binder |  |  |  |  | 
10 | CC(C)n1cc(CC(=O)NCCc2ccc(O)cc2)c2ccccc21 [Compound 10, N-[2-(4-hydroxyphenyl)ethyl]-2-(1-isopropylindol-3-yl)acetamide] |  | 53000 | toxic | 4.311 | 4.202 |  | 735 |  |  |  | 
11 | COc1ccc2c3c1O[C@H]1C[C@@H](O)C=C[C@@]31CCN(C)C2 [GAL, galantamine] |  |  |  |  |  |  |  | > 50000 | 5.60[47] mL/min/kg | 2.30[47] L/kg | 5.30[47] h
